Columns and labels:
B2 bradykinin receptor [1] = target: T1, B2 bradykinin receptor (Homo sapiens, UniProt P30411); experiment: Antagonist activity against bradykinin B2 receptor; format: functional; settings: read-out: pA2 (converted)
T1 sequence (P30411 whole entry): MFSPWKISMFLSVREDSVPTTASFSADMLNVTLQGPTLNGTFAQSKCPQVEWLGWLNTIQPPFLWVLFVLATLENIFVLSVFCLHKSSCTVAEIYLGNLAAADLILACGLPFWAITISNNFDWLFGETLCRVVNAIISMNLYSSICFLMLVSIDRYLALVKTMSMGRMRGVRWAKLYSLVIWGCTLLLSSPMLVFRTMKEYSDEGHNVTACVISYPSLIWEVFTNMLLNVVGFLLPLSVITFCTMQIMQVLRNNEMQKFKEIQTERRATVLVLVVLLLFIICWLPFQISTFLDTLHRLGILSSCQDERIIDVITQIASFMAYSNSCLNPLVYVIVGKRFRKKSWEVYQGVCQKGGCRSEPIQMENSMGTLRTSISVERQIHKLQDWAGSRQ

B2 bradykinin receptor [2] = target: T1, B2 bradykinin receptor; experiment: Binding affinity to human bradykinin B2 receptor transfected in CHO cells; format: cell-based

Row | SMILES | Kb (B2 bradykinin receptor [1]) [µM] | Ki (B2 bradykinin receptor [2]) [µM]
1 | NC(N)=NCCC[C@@H](N)C(=O)N[C@@H](CCCN=C(N)N)C(=O)N1CCC[C@H]1C(=O)N1CC(O)C[C@H]1C(=O)NCC(=O)N[C@@H](Cc1cccs1)C(=O)N[C@@H](CO)C(=O)N[C@@]1(Cc2ccccc2)CCCC2N(C1=O)[C@H](C(=O)N[C@@H](CCCN=C(N)N)C(=O)O)CC21CCCC1 (some centres undefined) | 2.51 | 0.1
2 | NC(N)=NCCC[C@@H](N)C(=O)N[C@@H](CCCN=C(N)N)C(=O)N1CCC[C@H]1C(=O)N1CC(O)C[C@H]1C(=O)NCC(=O)N[C@@H](Cc1cccs1)C(=O)N[C@@H](CO)C(=O)N[C@]1(Cc2ccccc2)CCCC2N(C1=O)[C@H](C(=O)N[C@@H](CCCN=C(N)N)C(=O)O)CC21CCCC1 (some centres undefined) | > 10 | 3.16

Source: ChEMBL document CHEMBL1146999, “Bradykinin antagonists modified with dipeptide mimetic beta-turn inducers” (Bioorg Med Chem Lett, 2006)
